Results reported in publication PMC4859520, “Binding Properties of General Odorant Binding Proteins from the Oriental Fruit Moth, Grapholita molesta (Busck) (Lepidoptera: Tortricidae)” (PLoS ONE, 2016).
“Also recorded” adds a separate entry of the source. Like-named read-outs stand apart in the source and are kept apart here.

Assays:
GmolGOBP1 = GmolGOBP1 (Grapholita molesta, UniProt H9XTU5); test: Fluorescence competitive binding assay with probe 1-NPN, rGmolGOBP1; settings: for binding to rGmolGOBP1 (in words): competitive binding with 1-NPN
Method: (§1) Fluorescence binding assays were performed on a Hitachi (Tokyo, Japan) F-4500 fluorescence spectrophotometer with a 1 cm light path fluorimeter quartz cuvette. Both of the slit widths for excitation and emission were 10 nm. 1-N-phenyl-naphthylamine (1-NPN) was dissolved in HPLC purity grade methanol to yield a 1 mM stock solution. […] The probes were excited at 337 nm and emission spectra were recorded between 370 and 550 nm. […] Binding data were collected in three independent measurements.
(§2) Dissociation constants of the complex GmolGOBPs/1-NPN (K1-NPN) were calculated by a nonlinear regression binding curve, using Prism 5.0 (GraphPad Software Inc.).

GmolGOBP2 = GmolGOBP2 (Grapholita molesta, UniProt H9XTU6); test: Fluorescence competitive binding assay with probe 1-NPN, rGmolGOBP2 wild-type
Method: as §1, §2

GmolGOBP2 T9A = GmolGOBP2 T9A (Grapholita molesta, UniProt H9XTU6, T29A); test: Fluorescence competitive binding assay, GmolGOBP2 mutant T9A
Method: (§3) Fluorescence binding assays were performed on a Hitachi (Tokyo, Japan) F-4500 fluorescence spectrophotometer with a 1 cm light path fluorimeter quartz cuvette. Both of the slit widths for excitation and emission were 10 nm. 1-N-phenyl-naphthylamine (1-NPN) was dissolved in HPLC purity grade methanol to yield a 1 mM stock solution. A 2 μM solution of the protein in 20 mM Tris-HCl, pH 7.4, was titrated with aliquots of 1 mM 1-NPN to final concentrations of 1, 2, 4, 6, 8, 10, 12, 14, 16, 18, and 22 μM. The probes were excited at 337 nm and emission spectra were recorded between 370 and 550 nm. All ligands (S1 File) used in competitive binding assays were also dissolved in HPLC purity grade methanol. The final concentrations of sex pheromones were between 1 and 22 μM for each rGmolGOBP protein, whereas the concentrations of 30 synthetic plant volatiles to rGmolGOBP1 and 2 were up to 64 and 100 μM, respectively. Binding data were collected in three independent measurements.
(§4) Dissociation constants of the complex GmolGOBPs/1-NPN (K1-NPN) were calculated by a nonlinear regression binding curve, using Prism 5.0 (GraphPad Software Inc.). The inhibition constants (Ki) of the competitors were computed from the corresponding IC50 values using the equation: Ki = [IC50]/(1+[1−NPN]/K1−NPN), where [1−NPN] is the free concentration of 1−NPN and K1-NPN is the dissociation constant of the complex protein/1-NPN.
(§5) Gene-specific primers were designed in accordance with the recommended protocols of the TaKaRa MutanBEST Kit (TaKaRa, Shiga, Japan). The GmolGOBP2 coding sequence was mutated to create the three mutants GmolGOBP2 T9A (threonine to alanine at position 9), GmolGOBP2 V111A (valine to alanine at position 111), and GmolGOBP2 V114A (valine to alanine at position 114). Mutations were obtained using the TaKaRa MutanBEST Kit with Pyrobest DNA polymerase with the pMD19-T/GmolGOBP2 plasmid DNA as template. All plasmids containing mutations were verified by DNA sequencing. Mutated protein expression and enrichment were performed as described above for rGmolGOBP1 and 2. After determining concentrations, purified mutants were applied to verify the binding affinities with dodecanol and its analogs in fluorescence ligand-binding assays.

GmolGOBP2 V111A = GmolGOBP2 V111A (Grapholita molesta, UniProt H9XTU6, V131A); test: Fluorescence competitive binding assay, GmolGOBP2 mutant V111A; settings: for affinity of V111A mutant versus wild-type (in words): V111A versus wild-type rGmolGOBP2
Method: as §3, §4, §5

GmolGOBP2 V114A = GmolGOBP2 V114A (Grapholita molesta, UniProt H9XTU6, V134A); test: Fluorescence competitive binding assay, GmolGOBP2 mutant V114A; settings: for affinity of V114A mutant versus wild-type (in words): V114A versus wild-type rGmolGOBP2
Method: as §3, §4, §5

rGmolGOBP2 = rGmolGOBP2 (Grapholita molesta, UniProt H9XTU6); test: Effect of pH on binding affinity of rGmolGOBP2
Method: Based on the fluorescence measurement experiments as described above, we further evaluated the effects of pH on the binding affinities of GmolGOBP2 to ligands; the binding of GmolGOBP2 to the representative ligand dodecanol was detected at six different pH values (4.0, 5.0, 6.8, 7.4, 8.0 and 8.8) in 20 mM Tris-HCl buffer. All the values of binding affinities were collected in three independent measurements. Data are reported as means±SEM. Difference in pH effect on binding affinity of rGmolGOBP2 was analyzed with one-way analysis of variance (ANOVA), followed by the Student-Newman-Keuls (S-N-K) test at α = 0.05. P<0.05 was considered statistically significant. For statistical analysis we used SPSS 16.0 software (SPSS Inc., Chicago, IL).

rGmolOBP15 = target: rGmolOBP15; parameters: method as in PMID 26609640; settings: cited from earlier work
rGmolPBP1 = target: rGmolPBP1; parameters: method as in earlier work; settings: cited from earlier work
[1] = protein and 1-NPN 2 μM, pH 7.4, calculated from IC50, read-out: GmolGOBP1 Ki
[2] = protein and 1-NPN 2 μM, pH 7.4, displacing half of initial fluorescence, read-out: GmolGOBP1 IC50
[3] = T9A versus wild-type rGmolGOBP2
[4] = protein and 1-NPN 2 μM, pH 7.4, calculated from IC50, read-out: GmolGOBP2 Ki
[5] = protein and 1-NPN 2 μM, pH 7.4, displacing half of initial fluorescence, read-out: GmolGOBP2 IC50

GmolGOBP2 T9A, sequence (H9XTU6 entry or part of it T29A): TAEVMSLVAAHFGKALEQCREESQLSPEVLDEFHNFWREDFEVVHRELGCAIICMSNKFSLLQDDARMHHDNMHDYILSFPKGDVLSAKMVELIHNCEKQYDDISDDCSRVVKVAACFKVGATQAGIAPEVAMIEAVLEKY
GmolGOBP2 V114A, sequence (H9XTU6 entry or part of it V134A): as the sequence (H9XTU6 entry or part of it T29A) above, with A9T, V114A counted along it
rGmolGOBP2, sequence (H9XTU6 entry or part of it): as the sequence (H9XTU6 entry or part of it T29A) above, with A9T counted along it
GmolGOBP2, sequence (H9XTU6 entry or part of it): as the sequence (H9XTU6 entry or part of it T29A) above, with A9T counted along it
GmolGOBP2 V111A, sequence (H9XTU6 entry or part of it V131A): as the sequence (H9XTU6 entry or part of it T29A) above, with A9T, V111A counted along it
GmolGOBP1, sequence (H9XTU5 entry or part of it): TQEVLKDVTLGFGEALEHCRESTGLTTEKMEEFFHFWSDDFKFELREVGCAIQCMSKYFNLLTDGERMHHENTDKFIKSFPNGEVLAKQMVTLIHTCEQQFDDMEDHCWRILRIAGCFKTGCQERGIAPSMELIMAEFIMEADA

CCCCC(CC)CO (stereo not drawn) [2-Ethyl-1-hexanol]
Ki (GmolGOBP1; [1]): 24.8 µM | IC50 (GmolGOBP1; [2]): 27 ± 1.81 µM

CCCCCC(=O)OCC [Ethyl hexanoate]
Ki (GmolGOBP1; [1]): 35 µM | IC50 (GmolGOBP1; [2]): 38.1 ± 3.36 µM

CCCCCC=O [Hexanal]
IC50 (GmolGOBP1): 33.6 ± 2 µM | Ki (GmolGOBP1): 30.9 µM

CC(C)CCO [3-Methyl-1-butanol]
Ki (GmolGOBP1; [1]): 10.7 µM | IC50 (GmolGOBP1; [2]): 11.6 ± 0.81 µM

CCCCCCCCCCCCCCCCO [hexadecanol]
Ki (GmolGOBP2; rGmolGOBP2 wild-type, protein and 1-NPN 2 μM, ligand 0 to 14 μM, read-out: Ki Wild-Type): 1.35 ± 0.45 µM | Ki (GmolGOBP2 T9A): 22.4 ± 3.03 µM | affinity of T9A mutant versus wild-type (in words) (GmolGOBP2 T9A; [3]): drastical decline in affinity | Ki (GmolGOBP2 V111A): 1.36 ± 0.13 µM | affinity of V111A mutant versus wild-type (in words) (GmolGOBP2 V111A): no differences | Ki (GmolGOBP2 V114A): 1.99 ± 0.74 µM | affinity of V114A mutant versus wild-type (in words) (GmolGOBP2 V114A): no differences

CCCCCCC=O [Heptanal]
Ki (GmolGOBP1; [1]): 34.2 µM | IC50 (GmolGOBP1; [2]): 37.1 ± 4.5 µM

CCCCCCCCCCCCO [12:OH, dodecanol]
binding to rGmolGOBP1 (in words) (GmolGOBP1): did not bind | Ki (GmolGOBP2; [4]): 1.22 µM | IC50 (GmolGOBP2; [5]): 1.78 ± 0.23 µM | Ki (GmolGOBP2 T9A): 6.04 ± 0.17 µM | decrease in affinity of T9A mutant (GmolGOBP2 T9A; [3]): 3-5 fold | Ki (GmolGOBP2 V111A): 1.35 ± 0.22 µM | affinity of V111A mutant versus wild-type (in words) (GmolGOBP2 V111A): slightly lower affinities | Ki (GmolGOBP2 V114A): 1.78 ± 0.13 µM | affinity of V114A mutant versus wild-type (in words) (GmolGOBP2 V114A): slightly lower affinities | binding affinity of rGmolGOBP2 at pH 4.0 (in words) (rGmolGOBP2; pH 4.0, 20 mM Tris-HCl): weak ability | binding affinity of rGmolGOBP2 at pH 7.4 (in words) (rGmolGOBP2; pH 7.4, 20 mM Tris-HCl, six pH values 4.0 to 8.8 compared): maximum value; also recorded: pronounced binding affinity | Ki (rGmolOBP15): 3.24 µM

COC(=O)c1ccccc1O [Methyl salicylate]
IC50 (GmolGOBP1): 49.8 ± 6.48 µM | Ki (GmolGOBP1): 45.8 µM | IC50 (GmolGOBP2): 93.7 ± 5.55 µM | Ki (GmolGOBP2): 77.3 µM

CC1=CCC2CC1C2(C)C (stereo not drawn) [α-Pinene]
IC50 (GmolGOBP1): 16.1 ± 1.22 µM | Ki (GmolGOBP1): 14.8 µM | IC50 (GmolGOBP2): 51.7 ± 7.11 µM | Ki (GmolGOBP2): 42.6 µM

CCCCCCCCCCCCCC [Tetradecane]
Ki (GmolGOBP1; [1]): 8.47 µM | IC50 (GmolGOBP1; [2]): 9.21 ± 1.31 µM

CCCC(=O)OCC [Ethyl butyrate]
Ki (GmolGOBP1; [1]): 33.2 µM | IC50 (GmolGOBP1; [2]): 36.1 ± 2.88 µM

CCCCCCCCCCO [decanol]
Ki (GmolGOBP2): 15.3 ± 1 µM | Ki (GmolGOBP2 T9A): 39.6 ± 2.34 µM | decrease in affinity of T9A mutant (GmolGOBP2 T9A; [3]): 3-5 fold | Ki (GmolGOBP2 V111A): 11.3 ± 0.17 µM | affinity of V111A mutant versus wild-type (in words) (GmolGOBP2 V111A): no differences | Ki (GmolGOBP2 V114A): 15.6 ± 0.43 µM | affinity of V114A mutant versus wild-type (in words) (GmolGOBP2 V114A): no differences

CCCCCCCC=O [Octanal]
Ki (GmolGOBP1; [1]): 21.5 µM | IC50 (GmolGOBP1; [2]): 23.3 ± 1.43 µM | Ki (GmolGOBP2; [4]): 66.4 µM | IC50 (GmolGOBP2; [5]): 80.4 ± 3.79 µM

O=Cc1ccccc1 [Benzaldehyde]
IC50 (GmolGOBP1): 35 ± 3.28 µM | Ki (GmolGOBP1): 32.2 µM | IC50 (GmolGOBP2): 91.3 ± 2.87 µM | Ki (GmolGOBP2): 75.4 µM

CCC/C=C\CCCCCCCOC(C)=O [Z8-12:AC, (Z)-8-dodecenyl acetate]
binding to rGmolGOBP1 (in words) (GmolGOBP1): did not bind | Ki (GmolGOBP2; [4]): 14.4 µM | IC50 (GmolGOBP2; [5]): 17.4 ± 0.87 µM | Ki (rGmolPBP1): 1.1 µM

CC/C=C\CC1C(=O)CCC1CC(=O)OC (stereo not drawn) [Methyl jasmonate]
Ki (GmolGOBP1; [1]): 35.8 µM | IC50 (GmolGOBP1; [2]): 38.9 ± 1.56 µM | Ki (GmolGOBP2; [4]): 60.8 µM | IC50 (GmolGOBP2; [5]): 73.7 ± 5 µM

CCCCCCCCCCCCCCC [Pentadecane]
Ki (GmolGOBP1; [1]): 11.4 µM | IC50 (GmolGOBP1; [2]): 12.4 ± 1.87 µM

CCCCCCCCCC=O [Decanal]
Ki (GmolGOBP1; [1]): 16 µM | IC50 (GmolGOBP1; [2]): 17.4 ± 1.3 µM | Ki (GmolGOBP2; [4]): 42.4 µM | IC50 (GmolGOBP2; [5]): 51.3 ± 3.18 µM

CC(=O)OCCC(C)C [Isoamyl acetate]
Ki (GmolGOBP1; [1]): 26.6 µM | IC50 (GmolGOBP1; [2]): 29 ± 2.18 µM
